Key:
[1] = target: T1, HRP (Armoracia rusticana, UniProt P00433); experiment: Comparison of signal intensity (Example 9): chemiluminescence on reaction of reagent with HRP; assay type: biochemical, horseradish; settings: 3.5×10^−16 moles of HRP
T1 sequence (P00433 31-338): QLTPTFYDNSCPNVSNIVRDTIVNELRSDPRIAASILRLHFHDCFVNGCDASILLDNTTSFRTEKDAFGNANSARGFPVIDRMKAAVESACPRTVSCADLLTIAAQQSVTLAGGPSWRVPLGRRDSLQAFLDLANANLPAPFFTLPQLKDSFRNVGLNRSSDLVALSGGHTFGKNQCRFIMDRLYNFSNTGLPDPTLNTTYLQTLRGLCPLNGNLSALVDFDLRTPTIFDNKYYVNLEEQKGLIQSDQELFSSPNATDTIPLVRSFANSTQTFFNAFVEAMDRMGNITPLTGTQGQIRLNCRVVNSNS
Method: Reagent compositions comprising 0.01 M tris buffer, pH 8, 0.5 mM urea peroxide, 0.1 mM p-phenylphenol, […], 0.025% Tween 20, and 5×10^−5 M of each compound in the table below except the compound designated Ref. 1 were tested for production of chemiluminescence by reacting a 100 μL aliquot with 3.5×10^−16 moles of HRP. The reagent formulation for Ref. 1 comprised 0.05 M tris buffer, pH 8.6, 0.25 mM urea peroxide, 0.05 mM p-phenylphenol, 0.5 mM EDTA, 0.0125% Tween 20, and 3.3×10^−4 M Ref. 1. For comparison, data are provided for reference compounds 1 and 2.

[2] = target: T2, HRP-labeled antibody (Armoracia rusticana, UniProt P00433); experiment: Western blot of β-galactosidase via HRP-labeled antibody on PVDF membrane; assay type: biochemical
T2 sequence (P00433 31-338): T1 sequence (P00433 31-338)
Method: A western blot assay of β-galactosidase as the test antigen was conducted according to the procedure described in U. K. Laemmli, Nature (London), 227, 680 (1970) using a PVDF membrane. β-Galactosidase standards in the range of 5000-5 pg. The detection reagent containing Compound 1 permitted detection to be performed in under 1 minute.

[3] = target: T1, HRP; experiment: Chemiluminescent detection of HRP with compound 1; assay type: biochemical, horseradish
Method: Reagent compositions comprising 0.01 M tris buffer, pH 7.0, 0.5 mm urea peroxide, 0.1 mM p-phenylphenol, 1 mM EDTA, 0.025% Tween 20 and 5×10^−5 M compound 1 were tested for production of chemiluminescence by reacting triplicate 100 μL aliquots with 10 μL of HRP in the range 1.4×10^−15 to 1.4×10^−20 moles. Light production ensued upon mixing and reached maximum intensity in about 1 min.

[4] = tested on: peroxidase; experiment: Chemiluminescence on reaction with peroxide and a peroxidase (general); assay type: biochemical; settings: mixtures of double bond isomers
Text: Reaction of ketene dithioacetal compounds of formula I, including those shown above, with peroxide and a peroxidase generate chemiluminescence which rapidly reaches very high intensity. Maximum light emission is achieved in one minute or less and remains constant for several minutes. […] No other known chemiluminescent peroxidase substrate generates high intensity chemiluminescence so rapidly. This kinetic behavior in unexpected and contrasts with the chemiluminescence time profile of structurally related compounds disclosed in the aforementioned U.S. Pat. No. 5,922,558. For example, a compound having the formula:
[drawing 18] reacted with HRP was disclosed to reach maximum chemiluminescence intensity in 7 min. The ability of the compounds of the present invention to reach a stable maximum light intensity so rapidly makes them more suitable than other chemiluminescent compounds for peroxidase detection in the rapid high throughput assays in demand today.
Compounds and compositions of the present invention are useful in a method to produce chemiluminescence by reaction with a peroxidase. Reaction of a compound of the invention with a peroxidase and a peroxide in an aqueous buffer solution produces easily detectable visible chemiluminescence. Light intensity reaches a maximum level rapidly at room temperature, typically in about 1 minute. […]

[5] = target: T1, HRP; experiment: Comparison of signal intensity (Example 10): maximum signal with HRP; assay type: biochemical, horseradish; settings: 3×10^−4 M compound, 0.025 M tris pH 8, 2.5 mM urea peroxide, 4 mM p-hydroxycinnamic acid; 3.5×10^−16 moles of HRP
Method: (§1) The maximum signal produced by each of compounds 14, and 27-29 was compared by reacting a 100 μL aliquot of reagent compositions comprising 0.025 M tris buffer, pH 8, 2.5 mM urea peroxide, 4 mM p-hydroxycinnamic acid, 0.5 mM EDTA, 0.1% Tween 20, and 3×10^−4 M of the test compound with 3.5×10^−16 moles of HRP. Each reagent reached maximum light intensity in about 1 minute.

[6] = target: T1, HRP; experiment: Comparison of signal intensity (Example 17): maximum signal with HRP; assay type: biochemical, horseradish; settings: 3.5×10^−16 moles of HRP
Method: as §1, with “40-51” for “14, and 27-29”, “either 1 mM, 0.3 mM, 0.15 mM or 0.05 mM” for “3×10^−4 M”, “1-3 minutes.” for “about 1 minute.”

[7] = Solubility in the aqueous formulation; assay type: physicochemical; settings: 0.025 M tris pH 8 formulation with 0.1% Tween 20
[8] = target: T1, HRP; experiment: Chemiluminescent detection of HRP with compounds 52 and 53; assay type: biochemical, horseradish; settings: 3×10^−4 M compound, HRP 1.4×10^−16 to 1.4×10^−21 moles
Method: Reagent compositions comprising 0.025 M tris buffer, pH 8.0, 2.5 mM urea peroxide, 4 mM p-hydroxycinnamic acid, 0.5 mM EDTA, 0.1% Tween 20 and 3×10^−4 M compound 52 or 53 were tested for production of chemiluminescence by reacting triplicate 100 μL aliquots with 10 μL of HRP in the range 1.4×10^−16 to 1.4×10^−21 moles. […] The relation between peak chemiluminescence intensity and amount of enzyme is depicted in FIG. 8.

[9] = target: T1, HRP; experiment: Stability of working solutions by solution assay; assay type: physicochemical, horseradish
Method: Reagent stability of the working solutions of compound 53 and compound 46 was assessed by preparing the working solution by combining 50 μL aliquots of the two component solutions and storing the mixed solutions at 4° C. or room temperature. The working solution contained 0.025 M tris buffer, pH 8, 2.5 mM urea peroxide, 4 mm p-hydroxycinnamic acid, 0.5 mM EDTA, 0.1% Tween 20, and 0.05 mM of the substrate. Chemiluminescent assays were run with 3.5×10^−16 moles of HRP at 25° C. Maximum intensity results were compared to the values obtained with fresh reagent prepared from the individual components stored at 4° C. […] The composition containing compound 53 was unchanged after four months at 4° C., that containing compound 46 was unchanged after 9 months at 4° C.

[10] = 5×10^−5 M compound, 0.01 M tris pH 8, 0.5 mM urea peroxide, 0.1 mM p-phenylphenol, 0.025% Tween 20
[11] = 1 mM test compound (Formulation 1.0)

**Q.** What does the source list for CSC(SC)=C1c2ccccc2N(c2ccccc2)c2ccccc21 [Compound 1]?
**A.** Signal/Background [1, 10]: 8060; lower abundance bands able to be imaged ([2]; β-galactosidase): ≤ 1 pg; time in which detection could be performed ([2]; β-galactosidase standards 5000-5 pg): under 1 minute; time to reach maximum intensity ([3]; 5×10^−5 M compound 1, pH 7.0, p-phenylphenol): about 1 min; log-log plot of chemiluminescence intensity vs. amount of enzyme ([3]; HRP 1.4×10^−15 to 1.4×10^−20 moles): linear over the entire range tested

**Q.** Which Signal/Background [1, 10] does the source give for CSC(SC)=C1c2ccccc2N(C)c2ccccc21 [Compound 2] here?
**A.** 953

**Q.** For c1ccc(CSC(SCc2ccccc2)=C2c3ccccc3N(c3ccccc3)c3ccccc32)cc1 [Compound 3], which generation of chemiluminescence [4] is on record?
**A.** Compounds 3, 4 and 6 were obtained as mixtures of double bond isomers. Each of these compounds generates chemiluminescence in the present invention.

**Q.** For CCCCCCCCSC(SC)=C1c2ccccc2N(c2ccccc2)c2ccccc21 [Compound 6], which generation of chemiluminescence [4] is on record?
**A.** Compounds 3, 4 and 6 were obtained as mixtures of double bond isomers. Each of these compounds generates chemiluminescence in the present invention.

**Q.** Which Signal/Background [1, 10] does the source give for CCCCCCCCSC(SCCCS(=O)(=O)[O-])=C1c2ccccc2N(c2ccccc2)c2ccccc21.[Li+] [Compound 13] here?
**A.** 7626

**Q.** With CSC(SCCCS(=O)(=O)[O-])=C1c2ccccc2N(Cc2ccc(Cl)cc2)c2ccccc21.[Na+] [Compound 28] as the molecule, how does the Signal/Background [5] read?
**A.** 6717

**Q.** Which Signal/Background [5] does the source give for COc1ccc(CN2c3ccccc3C(=C(SC)SCCCS(=O)(=O)[O-])c3ccccc32)cc1.[Na+] [Compound 29] here?
**A.** 6621

**Q.** Which Signal/Background [5] does the source give for O=S(=O)([O-])CCCSC(SCc1ccccc1)=C1c2ccccc2N(Cc2ccccc2)c2ccccc21.[Na+] [Compound 38] here?
**A.** 26000

**Q.** With CSC(SC)=C1c2ccccc2N(Cc2ccc(O)cc2)c2ccccc21 [Compound 40] as the molecule, how does the Signal/Background [6, 11] read?
**A.** 4011

**Q.** For O=S(=O)([O-])CCCSC(SCc1ccc(Cl)cc1)=C1c2ccccc2N(Cc2ccccc2)c2ccccc21.[Na+] [Compound 41], which Signal/Background [6, 11] is on record?
**A.** 14000

**Q.** Which Signal/Background [6, 11] does the source give for O=S(=O)([O-])CCCSC(SCc1ccccc1)=C1c2ccccc2N(c2ccccc2)c2ccccc21.[Na+] [Compound 42] here?
**A.** 9100

**Q.** With OC1CSC(=C2c3ccccc3N(c3ccccc3)c3ccccc32)SC1 (centres unmarked) [Compound 45] as the molecule, how does the Signal/Background ([6]; 0.3 mM test compound) read?
**A.** 2102

**Q.** With O=S(=O)([O-])CCCOC1CSC(=C2c3ccccc3N(Cc3ccccc3)c3ccccc32)SC1.[Na+] (centres unmarked) [Compound 47] as the molecule, how does the Signal/Background [6, 11] read?
**A.** 7228

**Q.** With O=P([O-])([O-])OCCCOC1CSC(=C2c3ccccc3N(Cc3ccccc3)c3ccccc32)SC1.[Na+].[Na+] (centres unmarked) [Compound 48] as the molecule, how does the Signal/Background [6, 11] read?
**A.** 4219

**Q.** Which Signal/Background ([6]; 0.05 mM test compound) does the source give for c1ccc(CN2c3ccccc3C(=C3SCCOCCOCCOCCOCCS3)c3ccccc32)cc1 [Compound 49] here?
**A.** 4853

**Q.** What about the “solubility in the aqueous formulation” value [7] of the same molecule?
**A.** very poorly soluble

**Q.** With O=S(=O)([O-])CCCOCCCN1c2ccccc2C(=C2Sc3ccccc3S2)c2ccccc21.[Na+] [Compound 50] as the molecule, how does the Signal/Background ([6]; 0.3 mM test compound) read?
**A.** 1651

**Q.** With CN1c2ccccc2C(=C2Sc3ccccc3S2)c2ccccc21 [Compound 51] as the molecule, how does the Signal/Background ([6]; 0.05 mM test compound) read?
**A.** 4264

**Q.** What about the “solubility in the aqueous formulation” value [7] of the same molecule?
**A.** very poorly soluble

**Q.** With O=S(=O)([O-])CCCOCCCSC(SCCCO)=C1c2ccccc2N(Cc2ccccc2)c2ccccc21.[Na+] [Compound 52] as the molecule, how does the Signal/Background ([6]; 0.15 mM test compound) read?
**A.** 5840

**Q.** What about the “rise of light to maximum intensity” value [8] of the same molecule?
**A.** reached maximum intensity rapidly

**Q.** Which Signal/Background ([6]; 0.15 mM test compound) does the source give for CSC(SCCCOCCCS(=O)(=O)[O-])=C1c2ccccc2N(Cc2ccccc2)c2ccccc21.[Na+] [Compound 53] here?
**A.** 5742

**Q.** What about the “working solution composition after storage” value ([9]; four months at 4° C.) of the same molecule?
**A.** unchanged

**Q.** What about the “reagent performance on storage of working solution” value ([9]; up to three weeks at room temperature, 0.05 mM substrate) of the same molecule?
**A.** no deterioration of reagent performance

**Q.** And the “rise of light to maximum intensity” value [8]?
**A.** reached maximum intensity rapidly

**Q.** Which Signal/Background ([6]; 0.15 mM test compound) does the source give for CSC(SCCCSCCCS(=O)(=O)[O-])=C1c2ccccc2N(c2ccccc2)c2ccccc21.[Na+] [Compound 54] here?
**A.** 2502

**Q.** With CSC(SCCCOS(=O)(=O)[O-])=C1c2ccccc2N(Cc2ccccc2)c2ccccc21.[Na+] [Compound 55] as the molecule, how does the Signal/Background ([6]; 0.3 mM test compound) read?
**A.** 5408

**Q.** Which results are given for CN1c2ccccc2C(=C(OP(=O)([O-])[O-])Sc2ccccc2)c2ccccc21.[Na+].[Na+] [Ref. 1, reference compound]?
**A.** Signal/Background ([1]; Ref. 1 formulation: 3.3×10^−4 M, 0.05 M tris pH 8.6, 0.25 mM urea peroxide, 0.05 mM p-phenylphenol): 53; chemiluminescence intensity and exposure needed, compared with the compound 1 reagent ([2]; β-galactosidase): lower intensity chemiluminescence and required longer exposures; lower abundance bands able to be imaged ([2]; β-galactosidase): not possible to image

**Q.** For COC(Sc1ccccc1)=C1c2ccccc2N(C)c2ccccc21 [Ref. 2, reference compound], which Signal/Background [1, 10] is on record?
**A.** 325
